Results on three molecules are retold here after patent US10604741B2, “Compositions and methods for enhancing virus replication” (TURNSTONE LIMITED PARTNERSHIP, priority 2013, dated 2020).

Read-outs that look alike come from different tables or passages of the source.

One assay relates to VSVΔ51 in CT26 cells. In kind it is cell-based, mouse. To be noted: 24 hours.
The test system of a further assay is VSVΔ51 in GM38 cells. It counts as cell-based, human. Conditions: 24 hours.
Assay [1] relates to VSVΔ51 in 786-0 tumors. It counts as cell-based, SCID mice.
The next assay concerns Reovirus in 786-0 cells. In kind it is cell-based, human. To be noted: 48 hours.
The subject of assay [2] is VSVΔ51 in MiaPaca tumors. In kind it is cell-based, SCID mice.
The test system of assay [3] is VSVΔ51 in 786-0 cells. It counts as cell-based, human. Conditions: 24 hours.
For the next assay, the system named is VSVΔ51 in OVCAR8 tumors. Also on record: species or system SCID mice. Conditions: mouse, in vivo, iv.
Another assay relates to HSV-1 in 786-0 cells. It counts as cell-based, human. To be noted: 48 hours.
For assay [4], the system named is Measles virus (Edmonston strain) in WI38 cells. The experiment in a line: Measles virus titers in WI38 cells treated with FGF2, plaque assay. In kind it is cell-based, human. Conditions: FGF2 100 ng/ml, serum free media; MOI 0.1; 48 hours; FIG. 22. As to the method: WI38 cells were treated with 100 ng/ml FGF2, or mock treated, in serum free media.
24 hours later, cells were infected with Measles virus (Edmonston strain) at an MOI 0.1. 48 hours later, supernatants were collected and virus titration was performed by plaque assay in Vero cells. The resulting titers are illustrated in FIG. 22.

The test system of assay [5] is VSVΔ51 in 786-0 tumors. Also on record: species or system SCID mice. Conditions: mouse, in vivo, iv.
In assay [6] the test system is VSVΔ51 in MiaPaca tumors. It counts as in vivo, SCID mice. To be noted: 72 hours.
The test system of the next assay is VSVΔ51 in WI38 cells. It counts as cell-based, human. To be noted: 24 hours.
The subject of a further assay is VSV in 786-0 cells. In kind it is cell-based, human. Conditions: 24 hours.
The next assay has as its system VSVΔ51 in MC38 cells. It counts as cell-based, mouse. Conditions: 48 hours.
The test system of assay [7] is human H1N1 Influenza A strain FM/1/47 in MRC5 cells. As to the kind of experiment: Influenza A titers in MRC5 cells treated with FGF2, nucleoprotein ELISA. In kind it is cell-based. To be noted: FGF2 100 ng/ml, serum free media; MOI 0.05 or 0.1; FIG. 21. As to the method: MRC5 cells were treated with 100 ng/ml FGF2, 100 ng/ml leptin, or mock treated, in serum free media.
48 hours later, cells were infected with the human H1N1 Influenza A strain FM/1/47 at MOI 0.05 or 0.1, as indicated, in the presence of 1 μg/ml TPCK trypsin. 48 h (MOI 0.1) or 72 h (MOI 0.05) later, supernatants from triplicate wells were collected and pooled. Viral titers were obtained by ELISA for Influenza A nucleoprotein. The resulting titers are illustrated in FIG. 21.

Assay [8] deals with JX594-GFP in 786-0 cells. In kind it is cell-based, human. To be noted: 48 hours.
In a further assay the test system is VSVΔ51 in OVCAR8 cells. In kind it is cell-based, human. Conditions: 24 hours.
In the next assay the test system is MG1 in 786-0 cells. It counts as cell-based, human. Conditions: 24 hours.
Assay [9] deals with VSVΔ51 in 786-0 cells. In kind it is cell-based, human.
Assay [10] is described as follows: Enhancement of virus replication, test not described. To be noted: no test details given.
Assay [11] relates to JX594-GFP in 786-0 cells. In kind it is cell-based, human.

“FGF2: recombinant human FGF2 protein; amino acid sequence shown in SEQ ID NO: 9”: the “total PFU/mL, fold higher than untreated or FGF1-treated cells” value in the assay on VSVΔ51 in CT26 cells, in the assay on VSVΔ51 in WI38 cells, in the assay on VSVΔ51 in OVCAR8 cells and in the assay with VSVΔ51 in 786-0 cells [9] (24 hours) was “at least 15 fold” throughout. Moreover, the “effect on virus replication” value in the assay with VSVΔ51 in GM38 cells is “did not significantly affect virus replication”. For the same molecule, the “ex-vivo virus infection and GFP expression, fluorescent pictures” value with VSVΔ51 in 786-0 tumors [1] was “increased ex-vivo virus infection and transgene protein expression (GFP)”; in the assay with VSVΔ51 in MiaPaca tumors [2], “increased ex-vivo virus infection and transgene protein expression (GFP)”. Also, the “ex vivo virus production (virus titers)” value in the assay on VSVΔ51 in 786-0 tumors [1] (48 hours) and in the assay on VSVΔ51 in MiaPaca tumors [2] (48 hours) was “enhancement of ex vivo virus production” throughout. Moreover, the “virus replication vs untreated cells” value with Reovirus in 786-0 cells, in the assay on HSV-1 in 786-0 cells, in the assay with VSV in 786-0 cells, with JX594-GFP in 786-0 cells [8], in the assay with MG1 in 786-0 cells and in the assay with VSVΔ51 in 786-0 cells [9] (24 hours) was “enhanced virus replication” in each case. In addition, the “virus titers, fold higher compared to control (untreated and FGF1-treated) cells” value in the assay on VSVΔ51 in 786-0 cells [3] is given as 10 fold. Moreover, the “VSVΔ51 titers in tumors” value in the assay on VSVΔ51 in OVCAR8 tumors, in the assay with VSVΔ51 in 786-0 tumors [5] and in the assay on VSVΔ51 in MiaPaca tumors [6] was “enhanced virus replication” each time. Also, in assay [4], the “measles viral replication (virus titers)” value is reported as “Enhanced Viral Replication”. This molecule came in with a Virus titre in the assay with VSVΔ51 in MC38 cells of 7.73e6 ± 9.8e5 pfu/mL. For the same molecule, the “influenza viral replication (viral titers)” value in [7] was “Enhanced Viral Replication”. In addition, the “rate of production of VSVΔ51 compared to untreated 786-0 cells” value with VSVΔ51 in 786-0 cells [9] is on record as “increased”. Further, in the assay with VSVΔ51 in 786-0 cells [9] (24 hours), the “FGF2 concentration at which enhanced VSVΔ51 replication is seen” value was not above 20 ng/mL. For the same molecule, in the assay on VSVΔ51 in 786-0 cells [9] (after 6 hours), the “pfu/ml in cell associated supernatants” value is reported as “about 1E2 pfu/ml”. In the assay with VSVΔ51 in 786-0 cells [9] (after 48 hours), the “plaque forming units/mL in cell associated supernatants” value is on record as “about 5E6 pfu/mL”.
Take “SEQ ID NO: 14: human recombinant FGF2 protein (Accession: # P09038)”: the virus replication entry in assay [10] was “enhance virus replication”.

B1: mFGF2: recombinant murine FGF2 protein; amino acid sequence shown in SEQ ID NO: 11 (protein)
chain: MAASGITSLPALPEDGGAAFPPGHFKDPKRLYCKNGGFFLRIHPDGRVDGVREKSDPHVKLQLQAEERGVVSIKGVCANRYLAMKEDGRLLASKCVTEECFFFERLESNNYNTYRSRKYSSWYVALKRTGQYKLGSKTGPGQKAILFLPMSAKS
modifications: recombinant mouse protein
As to B1, the Virus titre in the assay on VSVΔ51 in MC38 cells came to 8.20e6 ± 1.1e6 pfu/mL. Also, in the assay on JX594-GFP in 786-0 cells [11], the “Average of pixel intensity” value came to 24.90 and the “Relative pixel intensity increase” value came to 4.37. For the same molecule, in the assay with JX594-GFP in 786-0 cells [11] (after 48 hours), the “Average of pixel intensity” value came to 24.90 and the “Relative pixel intensity increase” value is 4.37.
